What follows are compounds tested against T1, human TRPM5 ion channel (Homo sapiens, UniProt Q9NZQ8) (assay: FLIPR-based assay for membrane potential and calcium mobilization (TRPM5 inhibiting activity)). Details: live cells, 30° C., read-out: hTrpM5 IC50.
T1 sequence (Q9NZQ8 1-1165): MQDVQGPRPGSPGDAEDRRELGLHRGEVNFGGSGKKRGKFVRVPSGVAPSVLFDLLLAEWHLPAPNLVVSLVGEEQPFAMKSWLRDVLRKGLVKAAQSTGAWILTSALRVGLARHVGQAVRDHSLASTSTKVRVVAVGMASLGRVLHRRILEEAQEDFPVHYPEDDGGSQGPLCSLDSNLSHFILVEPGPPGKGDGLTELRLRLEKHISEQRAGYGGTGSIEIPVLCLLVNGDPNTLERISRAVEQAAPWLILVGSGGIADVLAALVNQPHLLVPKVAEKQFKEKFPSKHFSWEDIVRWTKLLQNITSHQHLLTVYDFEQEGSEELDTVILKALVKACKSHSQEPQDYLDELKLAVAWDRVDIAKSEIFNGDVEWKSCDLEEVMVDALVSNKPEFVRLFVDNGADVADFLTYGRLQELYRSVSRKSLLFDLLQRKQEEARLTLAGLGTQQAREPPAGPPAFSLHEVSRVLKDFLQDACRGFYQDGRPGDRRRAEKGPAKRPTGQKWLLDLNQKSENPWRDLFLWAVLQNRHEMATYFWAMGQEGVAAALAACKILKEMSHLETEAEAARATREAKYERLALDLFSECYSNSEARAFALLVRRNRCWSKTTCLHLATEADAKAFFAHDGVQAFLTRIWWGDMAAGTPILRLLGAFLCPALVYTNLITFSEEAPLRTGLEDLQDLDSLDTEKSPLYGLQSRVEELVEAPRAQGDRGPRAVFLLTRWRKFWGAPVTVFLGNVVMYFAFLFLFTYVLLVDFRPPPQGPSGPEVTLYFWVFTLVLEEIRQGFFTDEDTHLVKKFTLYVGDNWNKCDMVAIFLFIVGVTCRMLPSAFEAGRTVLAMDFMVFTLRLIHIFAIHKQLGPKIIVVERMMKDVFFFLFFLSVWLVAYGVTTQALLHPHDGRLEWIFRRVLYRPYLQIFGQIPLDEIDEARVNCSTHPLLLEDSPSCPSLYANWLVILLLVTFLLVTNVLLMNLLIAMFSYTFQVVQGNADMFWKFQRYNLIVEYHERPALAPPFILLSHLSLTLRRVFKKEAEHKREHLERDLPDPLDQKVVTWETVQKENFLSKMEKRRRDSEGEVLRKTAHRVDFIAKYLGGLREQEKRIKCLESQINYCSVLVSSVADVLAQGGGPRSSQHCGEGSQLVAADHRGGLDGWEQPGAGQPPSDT
Type: cell-based
Method: The activity of compounds of the present invention on human TRPM5 ion channel was measured using the FLIPR-based (fluorescent imaging plate reader) assay for membrane potential and calcium mobilization described in U.S. Patent Application Publication No. 2008/0249189 A1 in live cells, wherein the assay is performed at 30° C. Determinations of affinity and efficacy were derived from measurements of TRPM5 activity over a range of compound concentrations. The concentration range was achieved by 10 serial dilutions (either 2-fold or 3-fold decrements) from a maximum concentration of no greater that 100 μM. Curver fitting was performed on the resulting data to yield concentration-effect functions, from which the half-maximal inhibitory concentration (IC50) was derived for all the tested compounds. The IC50 values were considered to be accurate reflections of affinity between the compounds and TRPM5.
Representative compounds of the present invention have been tested in the FLIPR assay for TRPM5 inhibiting activity, which is described in detail above.

Row | SMILES | IC50 [nM]
1 | COc1cc(/C=N/NC(=O)CCn2cc(C)c3c(C)cccc32)ccc1OCc1cccnn1 [Example 19, 3-(3,4-Dimethyl-1H-indol-1-yl)-N′-(3-methoxy-4-(pyridazin-3-ylmethoxy)benzylidene)propanehydrazide] | 180
2 | COc1cc(/C=N/NC(=O)C2CC2c2ccccc2)ccc1OCc1cccnc1 (stereo not drawn) [Example 20, trans-N′-(3-Methoxy-4-(pyridin-3-ylmethoxy)benzylidene)-2-phenylcyclopropanecarbohydrazide] | 1600
3 | COc1cc(/C=N/NC(=O)CCn2cc(C)c3c(C)cccc32)ccc1OCc1cnccn1 [Example 21, 3-(3,4-Dimethyl-1H-indol-1-yl)-N′-(3-methoxy-4-(pyrazin-2-ylmethoxy)benzylidene)propanehydrazide] | 60
4 | Cc1cc(/C=N/NC(=O)CCc2cn(C)c3ccccc23)cc2cccnc12 [Example 23, 3-(1-Methyl-1H-indol-3-yl)-N′-((8-methylquinolin-6-yl)methylene)propanehydrazide] | 160
5 | COc1cccc(CCC(=O)N/N=C/c2cc(C)c3ncccc3c2)n1 [Example 26, 3-(6-Methoxypyridin-2-yl)-N′-((8-methylquinolin-6-yl)methylene)propanehydrazide] | 2000
6 | COc1cc(/C=N/NC(=O)CCn2cc(C)c3c(C)cccc32)cc2cccnc12 [Example 27, 3-(3,4-Dimethyl-1H-indol-1-yl)-N′-((8-methoxyquinolin-6-yl)methylene)propanehydrazide] | 1.4
7 | COc1cc(/C=N/NC(=O)C2CC2c2cccc(Cl)c2)cc2cccnc12 (stereo not drawn) [Example 30, trans-2-(3-Chlorophenyl)-N′-((8-methoxyquinolin-6-yl)methylene)cyclopropanecarbohydrazide] | 45
8 | Cc1cn(CCC(=O)N/N=C/c2ccc3nccnc3c2)c2ccccc12 [Example 32, 3-(3-Methyl-1H-indol-1-yl)-N′-(quinoxalin-6-ylmethylene)propanehydrazide] | 2200
9 | Cc1cn(CCC(=O)N/N=C/c2ccc3ncccc3n2)c2ccccc12 [Example 33, N′-((1,5-Naphthyridin-2-yl)methylene)-3-(3-methyl-1H-indol-1-yl)propanehydrazide] | 1300
10 | Cc1cn(CCC(=O)NN=Cc2ccc3nnccc3c2)c2ccccc12 [Example 34, N′-(Cinnolin-6-ylmethylene)-3-(3-methyl-1H-indol-1-yl)propanehydrazide] | 430

Further lines, results first:

Row | IC50 [nM] | SMILES
11 | 830 | Cc1cc(/C=N/NC(=O)CSc2cccc(Cl)c2)cc2cccnc12 [Example 35, 2-(3-Chlorophenylthio)-N′-((8-methylquinolin-6-yl)methylene)acetohydrazide]
12 | 810 | COc1ccc(/C=N/NC(=O)CCc2cnc3ccccc3c2)cc1OC [Example 39, N′-(3,4-dimethoxybenzylidene)-3-(quinolin-3-yl)propanehydrazide]
13 | 510 | Cc1cc(/C=N/NC(=O)C2CC2c2ccc(F)cc2)cc2cccnc12 (stereo not drawn) [Example 40, trans-2-(4-Fluorophenyl)-N′-((8-methylquinolin-6-yl)methylene)cyclopropanecarbohydrazide]
14 | 5400 | Cc1cc(/C=N/NC(=O)C2CC2c2ccc(Cl)cn2)cc2cccnc12 (stereo not drawn) [Example 43, trans-2-(5-Chloropyridin-2-yl)-N′-((8-methylquinolin-6-yl)methylene)cyclopropanecarbohydrazide]
15 | 550 | O=C(N/N=C/c1cc(F)c2ncccc2c1)C1CC1c1ccccc1 (stereo not drawn) [Example 44, trans-N′-((8-Fluoroquinolin-6-yl)methylene)-2-phenylcyclopropanecarbohydrazide]
16 | 24 | Cc1cccc2c1c(C)cn2CCC(=O)N/N=C/c1ccc2c(c1)OCCCO2 [Example 45]
17 | 6 | COc1ccc(/C=N/NC(=O)CCn2cc(C)c3c(OC)cccc32)cc1OC [Example 46, N′-(3,4-Dimethoxybenzylidene)-3-(4-methoxy-3-methyl-1H-indol-1-yl)propanehydrazide]

From patent US20110033393A1, “Hydrazone Compounds and Their Use” (priority 2009, published 2011)
